From ChEMBL document CHEMBL3507680, “University of Dundee, Gates Library screen for HepG2 cell viability”

Test: Human HepG2 cell viability assay in 384 well format
Type: toxicity, cell-based
Parameters: dose 125 nL, time 70.5 hour; cytotoxicity at 70.5 h: concentration not given beside the values
Conditions: HepG2 cells, read-out: Inhibition

| SMILES | cytotoxicity at 70.5 h [%] |
| --- | --- |
| CCN1CCN(Cc2nc(CC(C)C)no2)CC1 | 19.9 |
| COc1cccc(CNCc2c(C)nn(C)c2N(C)C)c1 | 0.816 |
| O=C(c1cccc2cccnc12)N1CCCC(n2ccnc2)C1 (stereo unspecified) | -5.33 |
| Cc1cc(NC(=O)CN2CCCC(Cn3nc(C)nc3C)C2)n(C)n1 (stereo unspecified) | -2.11 |
| CCc1nc(C2CCCN2CC(=O)NCCOc2ccccc2)no1 (stereo unspecified) | 11.4 |
| Cc1cc(C)n(CC2CN(Cc3ccccn3)CCO2)n1 (stereo unspecified) | 1.96 |
| COCCOc1cccc(CNCc2c(C)nn(C)c2N(C)C)c1 | -2.1 |
| Cn1cc(Cl)cc1C(=O)N1CCCN(Cc2nccn2C)CC1 | -1.83 |
| Cc1noc(C)c1CNC(=O)N(C)C1CCN(c2ccccc2)C1=O (stereo unspecified) | -2.2 |
| CCn1ccnc1CN1CCN(CC(=O)NC2CCOCC2)CC1 | 25.6 |
| COCCCNC(=O)Nc1ccc(-n2cncn2)c(C(F)(F)F)c1 | -5.91 |
| CN(C(=O)NCCN1CCOCC1)C1CCN(c2ccccc2)C1=O (stereo unspecified) | -14.1 |
| Cc1ccccc1-c1noc(CN2CCc3cncnc3C2)n1 | -11.1 |
| Cc1ccc(NC2CCN(C(=O)CCn3nc(C)cc3C)CC2)nn1 | -14.3 |
| O=C(NCCCNc1ccc(C(F)(F)F)cn1)c1ccc(F)cc1 | -18.9 |
| COc1ccc(C(=O)NCCCNc2ccc(C(F)(F)F)cn2)cc1 | -17.2 |
| Cc1ccc(C(=O)NCc2cccnc2N(C)C)o1 | -12.1 |
| Cc1cc(C(=O)NCc2cccnc2N(C)C)c(C)o1 | 14.3 |
| CC(Cn1ccnc1)NC(=O)Nc1ccccn1 (stereo unspecified) | 10.5 |
| N#Cc1cn(C2CC2)c(=O)n(CC(O)c2ccc(Cl)cc2)c1=O (stereo unspecified) | -3.7 |
| Cc1cc(C)c(CNC(=O)N2CCN(c3nccs3)CC2)c(=O)[nH]1 | 14.3 |
| Cc1cc(C)c(CNC(=O)N2CCN(c3ccccn3)CC2)c(=O)[nH]1 | 0.786 |
| CC(OCC1CC1)C(=O)Nc1ncn(CC(=O)N2CCCCCC2)n1 (stereo unspecified) | 10.7 |
| c1ncc2c(n1)CN(Cc1nc(-c3ccc4c(c3)OCO4)no1)CC2 | -4.3 |

| SMILES | cytotoxicity at 70.5 h [%] |
| --- | --- |
| c1ncc2c(n1)CN(Cc1nc(-c3ccoc3)no1)CC2 | -7.49 |
| CCn1ccnc1CN1CCN(CC(=O)NC(C2CC2)C2CC2)CC1 | 16.4 |
| CC(C)NC(=O)CCNC(=O)Nc1ccc(-n2cncn2)c(F)c1 | -11.5 |
| O=C(COC1CCCC1)Nc1ncn(CC(=O)N2CCCCCC2)n1 | -8.06 |
| Cc1cc(C)n(CC(=O)N2CCC(Nc3cccnn3)CC2)n1 | -5.61 |
| O=C(CC1=CCCCC1)Nc1ncn(CC(=O)N2CCCCCC2)n1 | -6.09 |
| CN(C(=O)NCc1ccncc1)C1CCCN(c2ccccc2)C1=O (stereo unspecified) | -4.3 |
| CC(=O)Nc1ccc(-n2cncn2)c(F)c1 | -2.56 |
| Cc1nnc2n1CCN(CC(=O)N1CCc3ccccc3C1)C2 | 49.9 |
| CCCc1nc(CNCC2CCCN2c2cccnn2)cs1 (stereo unspecified) | 11.9 |
| CCc1nnc2n1CCN(CC(=O)N1CCc3ccccc3C1)C2 | 28.5 |
| Cc1ncsc1C(=O)N(C)Cc1ccccc1 | -4.43 |
| c1cnnc(N2CCCC2CNCc2csc(-c3ccco3)n2)c1 (stereo unspecified) | -11.5 |
| c1ccc(Cc2noc(CN3CCCCC3Cn3cncn3)n2)cc1 (stereo unspecified) | 11.2 |
| Cc1nc(CN2CCCC(N(C)Cc3nc(C)c(C)o3)C2)no1 (stereo unspecified) | -2.87 |
| Cc1nc(CN2CCCN(CC(=O)Nc3ccncc3)CC2)no1 | 5.91 |
| Cc1nc(CN2CCCC(N(C)Cc3cnc(C)s3)C2)no1 (stereo unspecified) | -1.22 |
| Cc1cc(NC(=O)CN2CCn3c(nnc3-c3ccccc3)C2)no1 | -1.17 |
| Cc1cc(NC(=O)CCN2CCn3c(nnc3C3CC3)C2)no1 | -11.7 |
| CCc1nc(CN2CCOC(CN(C)c3cccnn3)C2)cs1 (stereo unspecified) | -7.04 |
| Cc1ccccc1-c1noc(CN2CC(n3cccn3)C2)n1 | -5.02 |
| CCOc1ccccc1-c1noc(CN2CCN(CCOC)CC2)n1 | -6.13 |
| CC(Cc1cccs1)C(=O)NCc1cccc(N2CCCC2=O)c1 (stereo unspecified) | -8.97 |
| O=C(c1cccc2ncccc12)N1CCCN(c2cccnn2)CC1 | -11.1 |

| SMILES | cytotoxicity at 70.5 h [%] |
| --- | --- |
| Cc1cc(C)n(CC2CCCCN2CC(=O)N(C)Cc2ccco2)n1 (stereo unspecified) | 6.64 |
| CCc1nnc(CN2CCCN(C(=O)c3ccccn3)CC2)o1 | -10.8 |
| CCc1nc(C2CCCN2Cc2nc(Cc3ccccc3)no2)no1 (stereo unspecified) | -0.88 |
| Cc1ncc(CN2CCOC(CN(C)c3cccnn3)C2)s1 (stereo unspecified) | -9.59 |
| CCc1noc(CN2CCN(C(=O)c3ccccn3)CC2)n1 | -7.01 |
| COc1ccc(Br)c(C(=O)N2CCCC(c3nc(C)no3)C2)c1 (stereo unspecified) | -9.43 |
| CC(=O)Nc1nc(C(=O)NC(C)c2ccc(F)c(F)c2)cs1 (stereo unspecified) | -7.42 |
| CNS(=O)(=O)c1ccc(CNC(=O)NCC2CCC2)cc1 | -8.5 |
| CC(=O)Nc1nc(C(=O)NC(C)c2ccc(C#N)cc2)cs1 (stereo unspecified) | -7.27 |
| Cc1noc(C2CCCN(C(=O)c3cncc(Br)c3)C2)n1 (stereo unspecified) | -10.8 |
| CCC(O)CN(CC(=O)NC(=O)NC1CC1)c1ccccc1 (stereo unspecified) | -6.3 |
| CCNC(=O)NC(=O)CN(CC(C)O)c1ccccc1 (stereo unspecified) | -7.42 |
| CCOC(CC)C(=O)NCc1cccc(N2CCCCC2=O)c1 (stereo unspecified) | -6.54 |
| O=c1n(CCSCc2ccccc2Cl)nc2ccccn12 | -6.77 |
| Cc1ccc(CSCCn2nc3ccccn3c2=O)cc1 | -1.35 |
| O=C(Cc1ccc2c(c1)CCO2)N1CCCC(n2cccn2)C1 (stereo unspecified) | -12.1 |
| NS(=O)(=O)c1ccc(CC(=O)N2CCCC(n3cccn3)C2)cc1 (stereo unspecified) | -7.64 |
| Cc1noc(C2CCCN(C(=O)c3ccc(Cl)cc3F)C2)n1 (stereo unspecified) | -7.02 |
| O=C(Cc1cccc2cccnc12)N1CCCN(c2cccnn2)CC1 | -11 |
| Cc1nc2ccccc2nc1CN(C)C1CCCN(c2cccnn2)C1 (stereo unspecified) | 4.32 |
| CN(C)c1ncccc1C(=O)N1CCCN(c2cccnn2)CC1 | -6.59 |
| O=C(c1cccnc1O)N1CCCN(c2cccnn2)CC1 | -9.98 |
| O=C(NCc1ccc(Br)cc1)NCC1CCOC1 (stereo unspecified) | -10.4 |
| CN(Cc1ncc(C(C)(C)C)o1)CC1CCCN1c1cccnn1 (stereo unspecified) | 23.4 |

| SMILES | cytotoxicity at 70.5 h [%] |
| --- | --- |
| Cc1cc(NC(=O)C(C)N2CCN(c3nc(C)ns3)CC2)on1 (stereo unspecified) | 4.54 |
| CCc1nc(CN2CCCN(C(=O)COC(C)C)CC2)cs1 | 2.07 |
| CN(Cc1nnc(C2CC2)o1)CC1CCCN1c1cccnn1 (stereo unspecified) | -9.18 |
| Cc1nc(CN2CCCN(C(=O)COCC3CC3)CC2)cs1 | -2.01 |
| CCC1CCCN(CC(=O)Nc2oc(C)c3c(C)n[nH]c(=O)c23)C1 (stereo unspecified) | -9.67 |
| COc1ccc(C(=O)N(C)Cc2cc(C)on2)c(OC)c1 | -4.71 |
| O=C(NCCn1nc2ccccn2c1=O)c1cc[nH]n1 | 0.216 |
| O=C(NCCn1nc2ccccn2c1=O)c1cc(C2CC2)[nH]n1 | 2.27 |
| Cn1cnnc1C1CCCN(C(=O)NCCc2ccccn2)C1 (stereo unspecified) | -4.27 |
| Cn1cnnc1C1CCCN(C(=O)NCc2ccccc2)C1 (stereo unspecified) | 1.38 |
| CCn1cnnc1C1CCN(C(=O)CCCOc2ccccc2)CC1 | -3.85 |
| CCc1nc(CN2CCCN(C(=O)c3cc(C)on3)CC2)cs1 | -1.87 |
| Cc1ncsc1C(=O)N1CCC(Nc2cccnn2)CC1 | -7.04 |
| CC(=O)Nc1nc(C(=O)N2CCC(Nc3cccnn3)CC2)cs1 | -2.92 |
| O=C(CSc1ccc(F)cc1)NS(=O)(=O)c1ccc2c(c1)OCCO2 | 6.32 |
| CC(CC(=O)NS(=O)(=O)c1ccc2c(c1)OCCO2)c1ccc(F)cc1 (stereo unspecified) | -1.76 |
| CCOC1CCN(CC(=O)Nc2oc(C)c3c(C)n[nH]c(=O)c23)CC1 | -4.42 |
| CC(C)(C)c1cn2nc(N3CCCC(Cn4cncn4)C3)sc2n1 (stereo unspecified) | -9.57 |
| O=C(CCN1CCN(c2ccc3nncn3n2)CC1)NC1CCCC1 | -5.28 |
| CC(C)(C)c1cn2nc(N3CCCC3Cn3cccn3)sc2n1 (stereo unspecified) | 0.173 |
| CCCn1nc2c(cc1=O)CN(Cc1nnc(C3CC3)o1)CC2 | 10.1 |
| CC(c1nc(C2CC2)no1)N1CCN(Cc2ccccc2)CC1 (stereo unspecified) | -4.04 |
| c1cnc(-c2nc(CN3CCn4c(nnc4C4CC4)C3)cs2)nc1 | -9.61 |
| CC(c1nc(C2CC2)no1)N1CCN(Cc2cccc(F)c2F)CC1 (stereo unspecified) | -10.5 |

| SMILES | cytotoxicity at 70.5 h [%] |
| --- | --- |
| Cc1ccc(-c2nc(CN3CCn4c(C)nnc4C3)cs2)o1 | -7.11 |
| c1ccc(-c2nc(CN3CCn4c(nnc4C4CC4)C3)cs2)cc1 | -11.8 |
| CN(C)CC1CN(Cc2cccc(C(=O)N(C)C)c2)CCO1 (stereo unspecified) | -1.2 |
| Cc1nc(C)n(CC2CCCCN2Cc2ncc(C(C)(C)C)o2)n1 (stereo unspecified) | 8 |
| CC(NC(=O)NCCNc1cnccn1)c1cccs1 (stereo unspecified) | -6.24 |
| COc1c(Br)cc(Br)cc1CNC(C)Cn1cccn1 (stereo unspecified) | 16.4 |
| c1cc2n(n1)CC(CNCc1ccc(OCC3CC3)nc1)CN2 (stereo unspecified) | 1.11 |
| CNS(=O)(=O)Cc1ccc(CNC(=O)c2ccc(C)[nH]c2=O)cc1 | -9.88 |
| CC(C)C(NC(=O)NCCNc1ccccn1)c1cccs1 (stereo unspecified) | -8.85 |
| Cc1n[nH]c(=O)c2c(NC(=O)CN3CCCC(C(F)(F)F)C3)oc(C)c12 (stereo unspecified) | 15.7 |
| COC(=O)COc1cccc(NS(=O)(=O)c2cc(C(=O)O)cs2)c1 | 10.9 |
| COc1ccc(S(N)(=O)=O)cc1C(=O)N(C)Cc1cc(C)on1 | 24.6 |
| Cc1ccsc1CN(C)Cc1nc2c(cnn2C)c(=O)[nH]1 | -7.29 |
| CC(C)(C)c1cn2nc(N3CCOC(Cn4cncn4)C3)sc2n1 (stereo unspecified) | -15.9 |
| CC(C)(C)C(O)CN1CCN(C(=O)c2cccc3ncccc23)CC1 (stereo unspecified) | 20.7 |
| Cn1nc2c(cc1=O)CN(Cc1nnc(-c3ccc(F)cc3)o1)CC2 | -22.9 |
| CCSCCC(=O)NS(=O)(=O)c1ccc2c(c1)OCCO2 | -13.7 |
| O=C(CSc1ccc(F)c(F)c1)NS(=O)(=O)c1ccc2c(c1)OCCO2 | -14 |
| CCc1nc(CN2CCN(C(=O)C3CCCCC3)CC2)cs1 | -12.3 |
| CCc1nc(CN2CCCN(C(=O)c3c(C)noc3C)CC2)cs1 | -12.9 |
